Experiment: Surface tension isotherms
Type: physicochemical
Settings: 22° C.
Method: Surface tension isotherms were measured for selected functionalized branched alcohols EXXAL™ 11-Glucose-3(EO )Linker (also referred to herein as “EXXAL™ 11-EO3-Glucoside”) and EXXAL™ 11-Galactose-3(EO)Linker, as well as comparative alkoxylated alcohol glycoside n-undecanol-glucose-3(EO)Linker (also referred to herein as “Undecanol-EO3-Glucoside”). The names, chemical structures, and weight average molecular weights of these functionalized branched alcohols are as follows:
Tables 7, 8 and 9 immediately below provide surface tension isotherms for the compounds 1, 2, and 3 measured at 22° C. Specifically, Table 7 provides surface tension data of n-undecanol-glucose-3(EO)Linker, Table 8 provides surface tension data of EXXAL™ 11-Gluscose-3(EO)Linker, and Table 9 provides surface tension data of EXXAL™ 11-Galactose-3(EO)Linker.

## CCCCCCCCCCCOCCOCCOCCOC1OC(CO)C(O)C(O)C1O (stereo not drawn) [Compound 1, n-undecanol-glucose-3(EO)Linker]
Molarity 0.000125058 mol/L
  Surface Tension (γ): 41.0 mN/m
Molarity 0.000339945 mol/L
  Surface Tension (γ): 34.5 mN/m
Molarity 0.000924077 mol/L
  Surface Tension (γ): 33.2 mN/m
Molarity 0.001928806 mol/L
  Surface Tension (γ): 33.1 mN/m
Molarity 1.69248E−05 mol/L
  Surface Tension (γ): 55.6 mN/m
Molarity 2.29052E−06 mol/L
  Surface Tension (γ): 66.4 mN/m
Molarity 4.60064E−05 mol/L
  Surface Tension (γ): 48.6 mN/m
Molarity 6.22628E−06 mol/L
  Surface Tension (γ): 61.5 mN/m
Molarity 8.42635E−07 mol/L
  Surface Tension (γ): 70.2 mN/m
